This is an account of results in patent publication US8871728B2, “Non-peptide macrocyclic histone deacetylese (HDAC) inhibitors and methods of making and using thereof” (Georgia Tech Research Corporation, priority 2007, dated 2014).

Like-named read-outs stand apart in the source and are kept apart here.

Holding throughout (assay): SAMDI mass spectrometry HDAC inhibition assay
Assay type in all cases: biochemical

Test [1] addresses HDAC6 (Homo sapiens (Human), UniProt Q9UBN7). As to conditions: for inhibition at 10 µM: read-out: HDAC6 % inhibition; for HDAC6 inhibition, symbol / IC50 / HDAC6 inhibition in words: SAMDI; for IC50: read-out: HDAC6 IC50. The method, then:
(§1) There is precedence that fluorescently labeled substrates can perturb enzyme activity and the effect of inhibitors. […] Additionally, 3-hydroxypyridine-2-ones are highly colored solids and might lead to false positive signals. Mindful of these facts, a label-free SAMDI (self-assembled monolayers for MALDI) mass spectrometry assay was also used to assess HDAC inhibition.
The SAMDI technique, wherein self-assembled monolayers (SAM) of alkanethiolates on gold are analyzed by matrix assisted laser desorption/ionization (MALDI) mass spectrometry, has been widely used to characterize many biochemical activities, including the deacetylase enzyme family. The SAMDI assay was used to measure the inhibition constant (K1) of fragments against HDAC1, HDAC6 and HDAC8 using a previously identified preferred HDAC substrate.

Test [2] deals with HDAC1 (Homo sapiens (Human), UniProt Q13547). The note with it: for inhibition at 10 µM / HDAC1 % inhibition: given if the IC50 was above 10 μM, at 10 μM; for HDAC1 inhibition, symbol / HDAC1 inhibition in words: SAMDI. How it is done: as §1
(§2) The SAMDI technique, wherein self-assembled monolayers (SAM) of alkanethiolates on gold are analyzed by matrix assisted laser desorption/ionization (MALDI) mass spectrometry, has been widely used to characterize many biochemical activities, including the deacetylase enzyme family.

The target of test [3] is HDAC8 (Homo sapiens (Human), UniProt Q9BY41). The note with it: for inhibition at 10 µM / HDAC8 % inhibition: given if the IC50 was above 10 μM, at 10 μM. The method, then: as §1, §2
HDAC8, sequence (Q9BY41 whole entry): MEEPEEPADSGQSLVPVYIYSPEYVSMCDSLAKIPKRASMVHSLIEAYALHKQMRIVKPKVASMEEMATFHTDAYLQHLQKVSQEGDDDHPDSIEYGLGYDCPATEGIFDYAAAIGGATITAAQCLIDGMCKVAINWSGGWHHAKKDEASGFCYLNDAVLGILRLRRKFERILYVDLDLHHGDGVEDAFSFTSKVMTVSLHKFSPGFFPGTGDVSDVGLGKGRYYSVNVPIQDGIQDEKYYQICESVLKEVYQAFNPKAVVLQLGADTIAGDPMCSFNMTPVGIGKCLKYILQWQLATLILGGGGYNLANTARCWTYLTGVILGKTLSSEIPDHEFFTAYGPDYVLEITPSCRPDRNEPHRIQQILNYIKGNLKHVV

HDAC1, sequence (Q13547 whole entry): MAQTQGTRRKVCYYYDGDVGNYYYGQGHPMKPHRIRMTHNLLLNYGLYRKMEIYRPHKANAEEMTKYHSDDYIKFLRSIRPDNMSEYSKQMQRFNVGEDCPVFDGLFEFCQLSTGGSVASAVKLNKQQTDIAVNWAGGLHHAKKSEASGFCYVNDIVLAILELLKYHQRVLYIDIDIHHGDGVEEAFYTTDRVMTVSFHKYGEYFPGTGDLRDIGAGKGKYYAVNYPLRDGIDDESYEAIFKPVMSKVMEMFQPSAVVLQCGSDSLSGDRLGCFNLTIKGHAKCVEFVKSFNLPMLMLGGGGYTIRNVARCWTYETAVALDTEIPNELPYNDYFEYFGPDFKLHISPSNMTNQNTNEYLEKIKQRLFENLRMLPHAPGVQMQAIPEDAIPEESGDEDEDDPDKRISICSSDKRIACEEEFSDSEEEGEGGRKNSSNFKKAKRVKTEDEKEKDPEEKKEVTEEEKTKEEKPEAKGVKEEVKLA
HDAC6, sequence (Q9UBN7 whole entry): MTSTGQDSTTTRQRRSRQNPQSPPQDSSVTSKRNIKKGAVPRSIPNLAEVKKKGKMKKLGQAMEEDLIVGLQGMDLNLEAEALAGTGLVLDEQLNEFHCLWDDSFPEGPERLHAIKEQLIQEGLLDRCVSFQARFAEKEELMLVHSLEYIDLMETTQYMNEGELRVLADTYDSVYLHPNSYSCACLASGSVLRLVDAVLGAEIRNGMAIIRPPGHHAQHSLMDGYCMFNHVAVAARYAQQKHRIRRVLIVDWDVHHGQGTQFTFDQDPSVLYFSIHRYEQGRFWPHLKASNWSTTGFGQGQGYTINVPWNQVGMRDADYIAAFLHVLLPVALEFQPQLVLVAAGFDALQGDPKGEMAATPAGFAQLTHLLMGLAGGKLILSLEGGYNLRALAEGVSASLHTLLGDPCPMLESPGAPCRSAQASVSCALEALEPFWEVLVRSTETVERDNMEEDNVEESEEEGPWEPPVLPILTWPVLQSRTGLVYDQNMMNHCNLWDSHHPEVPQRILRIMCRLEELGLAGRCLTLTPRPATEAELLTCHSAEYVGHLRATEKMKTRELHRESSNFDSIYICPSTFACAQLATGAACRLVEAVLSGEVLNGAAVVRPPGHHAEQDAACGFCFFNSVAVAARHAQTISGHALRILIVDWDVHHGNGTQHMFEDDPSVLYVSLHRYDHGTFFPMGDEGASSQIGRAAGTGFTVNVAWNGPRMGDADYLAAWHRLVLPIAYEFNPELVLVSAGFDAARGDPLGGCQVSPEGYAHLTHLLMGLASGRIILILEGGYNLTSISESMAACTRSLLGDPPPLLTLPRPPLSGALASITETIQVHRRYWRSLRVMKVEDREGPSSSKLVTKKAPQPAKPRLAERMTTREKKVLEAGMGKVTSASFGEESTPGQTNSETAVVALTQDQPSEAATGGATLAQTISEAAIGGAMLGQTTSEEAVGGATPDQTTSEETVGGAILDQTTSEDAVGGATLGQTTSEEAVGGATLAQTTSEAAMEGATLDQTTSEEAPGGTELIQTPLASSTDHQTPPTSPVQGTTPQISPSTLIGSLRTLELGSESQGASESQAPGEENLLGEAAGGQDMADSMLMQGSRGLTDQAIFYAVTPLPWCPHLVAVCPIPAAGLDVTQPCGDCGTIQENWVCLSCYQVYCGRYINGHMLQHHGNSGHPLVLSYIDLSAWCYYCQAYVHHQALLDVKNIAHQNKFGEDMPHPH

As for `Oc1cccn(CCCCCCn2cc(-c3ccccc3)nn2)c1=S` [Compound 162e, 1-Phenyltriazolylhexyl-3-hydroxypyridine-2-thione], the inhibition at 10 µM is 22% in test [1] and 23% in test [2].

As for `Cc1cccc(-c2ccc(Cn3cccc(O)c3=O)cc2)c1` [Compound 148e, 1-(3-Methyl-(1,1′-biphenylmethyl))-3-hydroxyoxypyridine-2-one], in test [1], the “HDAC6 inhibition, symbol” value is reported as “NI (No significant Inhibition (below 20% Inhibition))”. Moreover, the “HDAC8 inhibition, symbol” value in test [3] (SAMDI) is given as “NI (No significant Inhibition (below 20% Inhibition))”. Besides, the “HDAC1 inhibition, symbol” value in test [2] is on record as “NI (No significant Inhibition (below 20% Inhibition))”.

On to `Oc1cccn(CCCn2cc(-c3ccccc3)nn2)c1=S` [Compound 162b, 1-Phenyltriazolylpropyl-3-hydroxypyridine-2-thione], for which the inhibition at 10 µM in test [3] is 63%; in test [2], 27%.

As to `Cc1cccc(-c2cn(CCCCCn3cccc(O)c3=O)nn2)c1` [Compound 166b, 1-(3-Tolyl)triazolylpentyl-3-hydroxypyridine-2-one], the “HDAC6 inhibition, symbol” value in test [1] is reported as “NI (No significant Inhibition (below 20% Inhibition))”. Moreover, the “HDAC8 inhibition, symbol” value in test [3] (SAMDI) is recorded as “NI (No significant Inhibition (below 20% Inhibition))”. This compound also came in with an inhibition at 10 µM in test [2] of 88%.

Consider `CN(C)c1ccc(-c2ccc(Cn3cccc(O)c3=S)cc2)cn1` [Compound 149h], for which, in test [1], the IC50 worked out at 2390 ± 458 nM. The compound further gave an inhibition at 10 µM in test [3] of 34%. Also, in test [2], the “HDAC1 inhibition, symbol” value is “NI (No significant Inhibition (below 20% Inhibition))”.

For `N#Cc1ccc(-c2cn(CCCCCn3cccc(O)c3=S)nn2)cc1C(F)(F)F` [Compound 167g, 1-(4-(3-Trifluomethyl)-benzonitrile)triazolylpentyl-3-hydroxypyridine-2-thione], the IC50 is 661 ± 121 nM in test [1] and 2260 nM in test [3] (SAMDI, read-out: HDAC8 IC50). Further, the inhibition at 10 µM in test [2] came to 55%.

`Cc1ccc(-c2cn(CCCCCn3cccc(O)c3=S)nn2)cc1` [Compound 167a, 1-(4-Tolyl)triazolylpentyl-3-hydroxypyridine-2-thione]: in test [2], the inhibition at 10 µM was found to be 31%.

Take `Oc1cccn(CCn2cc(-c3ccccc3)nn2)c1=S` [Compound 161, 1-Phenyltriazolylethyl-3-hydroxypyridine-2-thione]: the figures for the inhibition at 10 µM in test [1], in test [3] and in test [2] were 14%, 56% and 21%, respectively.

With `Cc1cccc(-c2ccc(Cn3cccc(O)c3=S)cc2)c1` [Compound 149e, 1-(3-Methyl-(1,1′-biphenylmethyl))-3-hydroxyoxypyridine-2-thione], the IC50 in test [1] is 812 ± 286 nM; in test [3] (SAMDI, read-out: HDAC8 IC50), 2500 ± 1180 nM. The “HDAC1 inhibition, symbol” value in test [2] is “NI (No significant Inhibition (below 20% Inhibition))”.

As for `Cc1ccc(-c2cn(CCCCCn3cccc(O)c3=O)nn2)cc1` [Compound 166a, 1-(4-Tolyl)triazolylpentyl-3-hydroxypyridine-2-one], the “HDAC6 inhibition, symbol” value in test [1] is “NI (No significant Inhibition (below 20% Inhibition))”. The inhibition at 10 µM in test [3] came to 15%; in test [2] it was 66%.

As for `CN(C)c1ccc(-c2ccc(Cn3cccc(O)c3=O)cc2)cn1` [Compound 148h], in test [1], the “HDAC6 inhibition, symbol” value is listed as “NI (No significant Inhibition (below 20% Inhibition))”. Besides, the inhibition at 10 µM in test [3] amounted to 37%. In addition, in test [2], the “HDAC1 inhibition, symbol” value is on record as “NI (No significant Inhibition (below 20% Inhibition))”.

As for `O=c1c(O)cccn1Cc1cn(-c2ccccc2)nn1` [Compound 152a, 1-Phenyltriazolylmethyl-3-hydroxypyridine-2-one], in test [1], the “HDAC6 inhibition, symbol” value was “NI (No significant Inhibition (below 20% Inhibition))”. The same compound showed an inhibition at 10 µM in test [3] of 17%. The “HDAC1 inhibition, symbol” value in test [2] is reported as “NI (No significant Inhibition (below 20% Inhibition))”.

Consider `N#Cc1ccccc1-c1ccc(Cn2cccc(O)c2=O)cc1` [Compound 148c, 1-(2-Cyano-(1,1′-biphenylmethyl))-3-hydroxyoxypyridine-2-one], for which the inhibition at 10 µM in test [1] came out at 5%; in test [3], 9%. For the same compound, the “HDAC1 inhibition, symbol” value in test [2] was “NI (No significant Inhibition (below 20% Inhibition))”.

For the compound `Cn1cccc(O)c1=O` [Compound 142a, 1-Methyl-3-hydroxypyridine-2-one], the “HDAC6 inhibition, symbol” value in test [1] is “NI (No significant Inhibition (below 20% Inhibition))”. In test [3], this compound returned an inhibition at 10 µM of 8%. In addition, the “HDAC1 inhibition, symbol” value in test [2] was “NI (No significant Inhibition (below 20% Inhibition))”.

As for `Oc1cccn(Cc2ccccc2)c1=S` [Compound 144b, 1-Benzyl-3-hydroxypyridine-2-thione], the IC50 is 457 ± 27 nM in test [1] and 1270 ± 200 nM in test [3] (SAMDI, read-out: HDAC8 IC50). Besides, the “HDAC8 activity, fold superior compared to 144e” value in test [3] (SAMDI) was 2 fold. Also, in test [2], the “HDAC1 inhibition, symbol” value is given as “NI (No significant Inhibition (below 20% Inhibition))”.

For `Oc1ccc[nH]c1=S` [3-hydroxypyridine-2-thione, reference compound], in test [1], the “HDAC6 inhibition in words” value is given as “low micromolar IC50 values” and the IC50 was determined as 681 ± 110 nM. The “HDAC8 inhibition in words” value in test [3] (SAMDI) is recorded as “low micromolar IC50 values”. The IC50 in test [3] (Table 14, read-out: HDAC 8 (nm)) was found to be 3680 ± 1200 nM. Further, in test [2], the “HDAC1 inhibition in words” value is “inactive” and the “HDAC1 inhibition, symbol” value is reported as “NI (No significant Inhibition (below 20% Inhibition))”.

As to `CN(C)c1ccc(-n2cc(Cn3cccc(O)c3=S)nn2)cc1` [Compound 154b, 1-(4-Dimethylamino)phenylltriazolylmethyl-3-hydroxypyridine-2-thione], the IC50 in test [1] was 1020 ± 99 nM; in test [3] (SAMDI, read-out: HDAC8 IC50), 1870 ± 723 nM. Moreover, the “HDAC1 inhibition, symbol” value in test [2] was “NI (No significant Inhibition (below 20% Inhibition))”.

`O=c1c(O)cccn1CCCCCCCn1cc(-c2ccccc2)nn1` [Compound 159f, 1-Phenyltriazolylheptyl-3-hydroxypyridine-2-one] showed an HDAC6 % inhibition in test [1] (at 10 μM, given if the IC50 was above 10 μM) of 34%. In test [3], this compound returned an HDAC8 % inhibition of 42%. Besides, the HDAC1 % inhibition in test [2] came to 2%.

In the case of `O=c1[nH]cccc1O` [3-hydroxypyridine-2-one, reference compound], in test [1], the “HDAC6 inhibition in words” value was “inactive” and the “HDAC6 inhibition, symbol” value is given as “NI (No significant Inhibition (below 20% Inhibition))”. Further, in test [3] (SAMDI), the “HDAC8 inhibition in words” value was “inactive” and the “HDAC8 inhibition, symbol” value was “NI (No significant Inhibition (below 20% Inhibition))”. In addition, in test [2], the “HDAC1 inhibition in words” value is “inactive” and the “HDAC1 inhibition, symbol” value was “NI (No significant Inhibition (below 20% Inhibition))”.

In the case of `N#Cc1ccc(-c2ccc(Cn3cccc(O)c3=O)cc2)cc1` [Compound 148a], the “HDAC6 inhibition, symbol” value in test [1] is given as “NI (No significant Inhibition (below 20% Inhibition))”. Moreover, the inhibition at 10 µM in test [3] was determined as 16%. Besides, the “HDAC1 inhibition, symbol” value in test [2] was “NI (No significant Inhibition (below 20% Inhibition))”.

On to `CN(C)c1ccc(-c2ccc(Cn3cccc(O)c3=O)cc2)cc1` [Compound 148g, 1-(4-Dimethylamino-(1,1′-biphenylmethyl))-3-hydroxyoxypyridine-2-one], for which the inhibition at 10 µM in test [1] came out at 11%; in test [3], 35%. The “HDAC1 inhibition, symbol” value in test [2] is reported as “NI (No significant Inhibition (below 20% Inhibition))”.

In test [2], `Cc1cccc(-c2cn(CCCCCn3cccc(O)c3=S)nn2)c1` [Compound 167b, 1-(3-Tolyl)triazolylpentyl-3-hydroxypyridine-2-thione] came in with an inhibition at 10 µM of 19%.

For `O=c1c(O)cccn1CCCCn1cc(-c2ccccc2)nn1` [Compound 159c, 1-Phenyltriazolylbutyl-3-hydroxypyridine-2-one], the “HDAC6 inhibition, symbol” value in test [1] is reported as “NI (No significant Inhibition (below 20% Inhibition))”. Besides, in test [3], the HDAC8 % inhibition was 5% and the inhibition at 10 µM was 10%. For the same compound, in test [2], the HDAC1 % inhibition turned out to be 12% and the inhibition at 10 µM came to 15%.

Consider `N#Cc1cccc(-c2cn(CCCCCn3cccc(O)c3=O)nn2)c1` [Compound 166e, 1-(3-Benzonitrile)triazolylpentyl-3-hydroxypyridine-2-one], for which the “HDAC6 inhibition, symbol” value in test [1] was “NI (No significant Inhibition (below 20% Inhibition))”. The “HDAC8 inhibition, symbol” value in test [3] (SAMDI) was “NI (No significant Inhibition (below 20% Inhibition))”. This compound registered an inhibition at 10 µM in test [2] of 71%.

`N#Cc1ccc(-c2cn(CCCCCn3cccc(O)c3=O)nn2)cc1C(F)(F)F` [Compound 166g, 1-(4-(3-Trifluomethyl)-benzonitrile)triazolylpentyl-3-hydroxypyridine-2-one]: in test [1], the “HDAC6 inhibition, symbol” value is listed as “NI (No significant Inhibition (below 20% Inhibition))”. The figures for the inhibition at 10 µM in test [3] and in test [2] were 14% and 71%, respectively.

For the compound `N#Cc1ccc(-c2cn(CCCCCn3cccc(O)c3=S)nn2)cc1` [Compound 167d, 1-(4-Benzonitrile)triazolylpentyl-3-hydroxypyridine-2-thione], the IC50 in test [1] was found to be 905 ± 249 nM; in test [3] (SAMDI, read-out: HDAC8 IC50) it was 1460 nM. In test [2], this compound displayed an inhibition at 10 µM of 33%.

For the compound `Cc1ccccc1-c1cn(CCCCCn2cccc(O)c2=O)nn1` [Compound 166c, 1-(2-Tolyl)triazolylpentyl-3-hydroxypyridine-2-one], in test [1], the “HDAC6 inhibition, symbol” value is on record as “NI (No significant Inhibition (below 20% Inhibition))”. In test [3], the inhibition at 10 µM worked out at 4%.

By inhibition is commonly meant the relative decrease from the control value, in per cent.
